Experimental data as given in US10609906B2, “Apparatus and method of using a simulated skin substrate for testing insect repellants” (S. C. JOHNSON & SON, INC., priority 2016, dated 2020).
Each block holds one molecule with its values, some of them ahead of it.

What was measured:
adult female mosquitoes = test: human surrogate apparatus 100 (Vitro-Skin skin substitute substrate), laboratory, complete protection time; assay type: in vivo, Aedes aegypti; details: for CPT data with human surrogate apparatus 100 compared with arm-in-cage group: 10% by weight, laboratory; for Predicted percent DEET concentration (±SE): inverse prediction from model
Description: With reference to FIG. 4, a method of using the human surrogate apparatus 100 is explained.
In certain embodiments, different test substances contain different concentrations of testing insect repellent. The concentration of testing insect repellent can be measured by weight percentage or by volume percentage of the testing insect repellent diluted in ethanol or in any other suitable diluents. […] Further, in the present embodiment, regardless of the concentration of the repellent, the combined mass of the repellent and ethanol is about 0.19 g. In other experiments, the combined mass of the repellent(s) and the diluent(s) is greater or less than about 0.19 g, but similarly stays the same independent of the concentration of the repellent. With different sets of experiments, the amount of skin-applied test substance used in the testing is based on the size of the substrate and the properties of different testing insect repellents, such as the active ingredient dosage.
This cycle of exposure-withdrawal-exposure is repeated until one or more biting insects land on the treated substrate for equal to or longer than 2 seconds.

wild mosquitoes = test: portable human surrogate apparatus 200, outdoor field test, complete protection time; assay type: in vivo; details: for CPT data with human surrogate apparatus 200 compared with voluntary human subjects group: outdoor field test
Experimental: The human surrogate apparatus of FIG. 1 is intended for use in a laboratory or controlled environment. Preferably, the controlled environment has a temperature range of between about 24° C. to about 30° C. and a range of relative humidity of between about 40% to about 60%. In contrast, FIGS. 2 and 3 illustrate an embodiment of a human surrogate apparatus 200 for testing the efficacy of a skin-applied insect repellent in the field. By fashioning the human surrogate apparatus 200 to be portable, the apparatus may be used in any number of real world environments. The human surrogate apparatus 200 therefore provides the advantage of similar testing efficacy as human testing, but without exposure to mosquitoes or other insects found in the field.
With reference still to FIGS. 2 and 3, the human surrogate apparatus 200 is disposed in an outdoor environment, with an identified population of biting insects. The portable human surrogate apparatus 200 is provided with a housing 202 having a power supply line 204 connected thereto. In some embodiments, a power supply 206 is located remotely from the housing 202 to provide power to the human surrogate apparatus 200. Alternatively, or in addition, a local power supply is provided within or attached to the housing 202. In such an embodiment, the power supply line 204 may be omitted, provided within the housing 202, or otherwise fashioned differently within the housing 202 to allow energy to reach electrical components thereof
With reference to FIG. 3, the human surrogate apparatus 200 includes a heater 208 in electrical communication with the power supply 206. In the present embodiment, the heater 208 is a silicone-rubber heating blanket, manufactured by BriskHeat Corporation, Columbus, OH. A non-collagen based, non-biological substrate 210 is also provided and is exposed to the ambient environment. In certain embodiments the non-collagen based, non-biological substrate 210 may be synthetic.
In the present embodiment, the substrate 210 is securely fastened to the portable human surrogate apparatus 200 by magnetic strips 212, or may be fastened by any other suitable means. In some embodiments a temperature buffering device 214 is provided beneath the substrate 210, which assists in transmitting heat from the heater 208 and maintains the substrate 210 at a predetermined temperature. In the present embodiment, the temperature buffering device 214 is a water bath, enclosed in a container 220, which is made of materials that prevent water leakage and that transmit heat at the same time. Moreover, the portable human surrogate apparatus 200 is connected to a CO2 source 216, which may be remote from the housing 202, attached to the housing 202, or otherwise retained within the housing 202. In the present embodiment, the CO2 source 216 delivers CO2 at a rate of between about 400 mL/min (14 oz/min) to about 600 mL/min (20.3 oz/min).
It has also been experimentally determined that the human surrogate apparatuses described herein perform consistently in a controlled environment, e.g., a laboratory with predetermined and controllable conditions, and in an uncontrolled environment, e.g., in an outdoor field test. With reference to FIG. 8 and Table 3, the CPT in hours obtained from testing 7% weight percentage DEET repellent efficacy in the laboratory and obtained from the field is similar.
Similarly, for testing substance picaridin (referring to FIGS. 11A-11C) and PMD (referring to FIGS. 12A-12C), the CPT data (including average CPT) in the human surrogate apparatus 200 group shares overlapping confidence intervals with the CPT data in the field test group using the voluntary human subjects.

[1] = surface wetting of insect repellent actives on hydrated skin substitute substrate; assay type: physicochemical; details: for surface wetting on skin substitute substrate: ethanol solutions containing 5%, 10%, 15%, and 25% of the active; for surface wetting on hydrated skin substitute substrate: insect repellant active as such
Description: Additionally, the surface wetting of insect repellents on the skin substitute substrate should be close to the surface wetting of insect repellents on human skin. The term “wetting” refers to the ease with which a substance can intimately contact and spread over a given substrate. There are a variety of forces (ionic, static, polar, van der Waals etc.) acting between the substance and the substrates that ensure good bonding. Good wetting provides a larger area of contact where these forces may act. Consequently, good wetting is crucial for good bond formation. […] Complete wetting is achieved when the contact angle between the liquid and the solid surface is approaching or is substantially zero. […] The interaction of ethanol solutions containing 5%, 10%, 15%, and 25% of each aforementioned active substance and the tested skin substitute substrate was also tested. […] Due to this degree of wetting between the insect repellent active and the tested skin substitute substrate, the desired bonding between the active and the tested skin substitute substrate is achieved. As a result, the insect repellent remains on the skin substitute substrate for a duration similar to that of human skin.

mosquitoes [2] = test: arm-in-cage method with human research participants, laboratory, complete protection time; assay type: in vivo
Description: When comparing the CPT data of skin-applied insect repellents, such as DEET, using the human surrogate apparatus 100 to the CPT data of skin-applied insect repellents obtained using human research participants via the arm-in-cage method (See Product Performance Test Guidelines OPPTS 810.3700: Insect Repellents to be Applied to Human Skin, United States Environmental Protection Agency, EPA 712-10-001, Jul. 7, 2010), data from both groups is very similar to each other as may be seen with reference to FIG. 5 in a controlled environment, e.g., a laboratory. Further, Table 1 illustrates the average CPT for the two methods based on differing weight percentages of the active ingredient DEET of the insect repellent, as well as the […] (“±SE”) at each weight percentage for the two groups. As may be seen, the differences between the experiments using human research participants via the arm-in-cage method and the experiments using the human surrogate apparatus 100 are statistically negligible.

mosquitoes [3] = test: as above; assay type: in vivo; details: inverse prediction from model
[4] = 7% DEET in EtOH, Lab, human surrogate apparatus
[5] = 7% DEET in ethanol, Human Skin Surrogate
[6] = 15% DEET in ethanol, Human Skin Surrogate
[7] = 20% DEET in ethanol, Human Skin Surrogate
[8] = 25% DEET in ethanol, Human Skin Surrogate
[9] = 30% DEET in ethanol, Human Skin Surrogate
[10] = 7% DEET in EtOH, Field, human surrogate apparatus

Structure (SMILES): CCC(C)OC(=O)N1CCCCC1CCO (stereo not shown) [picaridin, 2-(2-hydroxyethyl)-1-piperidinecarboxylic acid 1-methylpropyl ester]
CPT data with human surrogate apparatus 100 compared with arm-in-cage group (adult female mosquitoes): within the range of CPT data points of the group employing the arm-in-cage method
CPT data with human surrogate apparatus 200 compared with voluntary human subjects group (wild mosquitoes): No statistically significant difference
surface wetting on skin substitute substrate [1]: substantially complete wetting
surface wetting on hydrated skin substitute substrate [1]: substantially complete wetting

surface wetting on skin substitute substrate [1]: substantially complete wetting
surface wetting on hydrated skin substitute substrate [1]: substantially complete wetting
Structure (SMILES): CC1CCC(C(C)(C)O)C(O)C1 (stereo not shown) [PMD, para-menthane-3,8-diol]
CPT data with human surrogate apparatus 100 compared with arm-in-cage group (adult female mosquitoes): not significantly different
CPT data with human surrogate apparatus 200 compared with voluntary human subjects group (wild mosquitoes): No statistically significant difference

surface wetting on skin substitute substrate [1]: substantially complete wetting
surface wetting on hydrated skin substitute substrate [1]: substantially complete wetting
Structure (SMILES): CCN(CC)C(=O)c1cccc(C)c1 [DEET, N,N-Diethyl-3-methylbenzamide]
Complete protection time (median) (mosquitoes [2]; 7% DEET in ethanol): 2.3 h
Complete protection time Mean ± SE (mosquitoes [2]; 7% DEET in ethanol): 2.5 ± 0.7 h
Complete protection time (median) (mosquitoes [2]; 15% DEET in ethanol): 3.5 h
Complete protection time Mean ± SE (mosquitoes [2]; 15% DEET in ethanol): 3.9 ± 1.5 h
Complete protection time (median) (mosquitoes [2]; 20% DEET in ethanol): 3.8 h
Complete protection time Mean ± SE (mosquitoes [2]; 20% DEET in ethanol): 4.9 ± 2.1 h
Complete protection time (median) (mosquitoes [2]; 25% DEET in ethanol): 6.8 h
Complete protection time Mean ± SE (mosquitoes [2]; 25% DEET in ethanol): 6.5 ± 1.4 h
Complete protection time (median) (mosquitoes [2]; 30% DEET in ethanol): 6.6 h
Complete protection time Mean ± SE (mosquitoes [2]; 30% DEET in ethanol): 6.6 ± 0.7 h
Complete protection time (median) (adult female mosquitoes; [4]): 2.0 h
Complete protection time Mean ± SE (adult female mosquitoes; [4]): 2.2 ± 0.9 h
Complete protection time Range (adult female mosquitoes; [4]): 1.0 to 3.5 h
Complete protection time (median) (adult female mosquitoes; [5]): 2.0 h
Complete protection time Mean ± SE (adult female mosquitoes; [5]): 2.2 ± 0.9 h
Complete protection time (median) (adult female mosquitoes; [6]): 3.3 h
Complete protection time Mean ± SE (adult female mosquitoes; [6]): 3.6 ± 1.0 h
Complete protection time (median) (adult female mosquitoes; [7]): 5.3 h
Complete protection time Mean ± SE (adult female mosquitoes; [7]): 4.9 ± 2.1 h
Complete protection time (median) (adult female mosquitoes; [8]): 6.5 h
Complete protection time Mean ± SE (adult female mosquitoes; [8]): 6.3 ± 1.1 h
Complete protection time (median) (adult female mosquitoes; [9]): 7.0 h
Complete protection time Mean ± SE (adult female mosquitoes; [9]): 6.5 ± 2.3 h
Predicted percent DEET concentration (±SE) (adult female mosquitoes; for complete protection time 1 h, Human Skin Surrogate): 3.81 ± 1.72%
Predicted percent DEET concentration (±SE) (adult female mosquitoes; for complete protection time 2 h, Human Skin Surrogate): 8.17 ± 1.16%
Predicted percent DEET concentration (±SE) (adult female mosquitoes; for complete protection time 3 h, Human Skin Surrogate): 11.92 ± 1.04%
Predicted percent DEET concentration (±SE) (adult female mosquitoes; for complete protection time 4 h, Human Skin Surrogate): 15.71 ± 1.13%
Predicted percent DEET concentration (±SE) (adult female mosquitoes; for complete protection time 5 h, Human Skin Surrogate): 20.00 ± 1.21%
Predicted percent DEET concentration (±SE) (adult female mosquitoes; for complete protection time 6 h, Human Skin Surrogate): 25.55 ± 1.58%
Complete protection time (median) (wild mosquitoes; [10]): 2.0 h
Complete protection time Mean ± SE (wild mosquitoes; [10]): 2.0 ± 0.4 h
Complete protection time Range (wild mosquitoes; [10]): 1.5 to 2.5 h
CPT data with human surrogate apparatus 200 compared with voluntary human subjects group (wild mosquitoes): not significantly different
Predicted percent DEET concentration (±SE) (mosquitoes [3]; for complete protection time 1 h): 1.61 ± 1.69%
Predicted percent DEET concentration (±SE) (mosquitoes [3]; for complete protection time 2 h): 6.15 ± 0.94%
Predicted percent DEET concentration (±SE) (mosquitoes [3]; for complete protection time 3 h): 10.07 ± 0.88%
Predicted percent DEET concentration (±SE) (mosquitoes [3]; for complete protection time 4 h): 14.08 ± 1.15%
Predicted percent DEET concentration (±SE) (mosquitoes [3]; for complete protection time 5 h): 18.70 ± 1.46%
Predicted percent DEET concentration (±SE) (mosquitoes [3]; for complete protection time 6 h): 24.85 ± 2.64%
